Reference: US11197477B2, “Aqueous capsule suspension concentrates based on 2-[(2,4-dichlorophenyl)methyl]-4,4′-dimethyl-3-isoxazolidinone” (priority 2016, dated 2021)

What was measured:
[1] = cited from earlier work
[2] = Solubility of the active ingredient in Solvesso 200 ND; assay type: physicochemical; conditions: at room temperature; at higher concentrations the active ingredient crystallizes out in the capsule
Text: At higher concentrations, the active ingredient crystallizes out in the capsule.

Row | solubility of the active ingredient in Solvesso 200 ND [2] | SMILES | water solubility [1]
1 | 35 % by weight | CC1(C)CON(Cc2ccc(Cl)cc2Cl)C1=O [DCPMI, 2-[(2,4-dichlorophenyl)methyl]-4,4′-dimethyl-3-isoxazolidinone] | 39.5 ppm
2 |  | CC1(C)CON(Cc2ccccc2Cl)C1=O [clomazone, 2-(2-chlorobenzyl)-4,4-dimethyl-1,2-oxazolidin-3-one] | 1000 ppm
